Results reported in ChEMBL document CHEMBL5291721, “A preclinical secondary pharmacology resource illuminates target-adverse drug reaction associations of marketed drugs” (Nat Commun, 2023).

Legend:
[1] = biological target: T1, Muscarinic acetylcholine receptor M2 (Homo sapiens, UniProt P08172); format: functional, cell-based
T1 sequence (P08172 whole entry): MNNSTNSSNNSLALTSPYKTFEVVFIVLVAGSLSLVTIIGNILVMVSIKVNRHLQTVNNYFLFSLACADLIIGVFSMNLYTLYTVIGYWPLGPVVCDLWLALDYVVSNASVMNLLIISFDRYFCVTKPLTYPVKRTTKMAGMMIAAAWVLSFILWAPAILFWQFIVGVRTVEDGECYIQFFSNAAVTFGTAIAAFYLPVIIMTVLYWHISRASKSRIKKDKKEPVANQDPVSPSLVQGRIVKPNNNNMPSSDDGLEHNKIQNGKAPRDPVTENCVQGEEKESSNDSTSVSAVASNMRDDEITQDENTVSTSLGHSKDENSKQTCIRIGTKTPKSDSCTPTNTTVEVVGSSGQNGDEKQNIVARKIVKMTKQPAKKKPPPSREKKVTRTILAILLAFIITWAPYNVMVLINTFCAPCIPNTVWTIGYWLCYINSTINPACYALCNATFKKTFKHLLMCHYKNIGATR

[2] = biological target: T2, 5-hydroxytryptamine receptor 2C (Homo sapiens, UniProt P28335)
T2 sequence (P28335 whole entry): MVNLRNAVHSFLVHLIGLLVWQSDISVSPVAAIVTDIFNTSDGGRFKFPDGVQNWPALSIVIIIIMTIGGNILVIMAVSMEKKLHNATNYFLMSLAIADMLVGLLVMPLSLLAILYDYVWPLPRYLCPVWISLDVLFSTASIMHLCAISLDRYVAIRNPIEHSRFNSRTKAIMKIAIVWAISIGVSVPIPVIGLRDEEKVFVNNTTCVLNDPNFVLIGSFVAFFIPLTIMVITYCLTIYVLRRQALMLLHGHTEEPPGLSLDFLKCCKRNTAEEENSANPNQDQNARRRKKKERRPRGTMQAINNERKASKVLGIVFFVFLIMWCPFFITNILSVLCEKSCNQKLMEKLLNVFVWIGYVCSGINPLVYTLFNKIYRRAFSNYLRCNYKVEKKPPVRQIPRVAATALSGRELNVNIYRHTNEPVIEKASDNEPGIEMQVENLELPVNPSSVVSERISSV

[3] = biological target: cGMP-inhibited 3',5'-cyclic phosphodiesterase 3A (Homo sapiens, UniProt Q14432); format: functional
Sequence of cGMP-inhibited 3',5'-cyclic phosphodiesterase 3A (Q14432 whole entry): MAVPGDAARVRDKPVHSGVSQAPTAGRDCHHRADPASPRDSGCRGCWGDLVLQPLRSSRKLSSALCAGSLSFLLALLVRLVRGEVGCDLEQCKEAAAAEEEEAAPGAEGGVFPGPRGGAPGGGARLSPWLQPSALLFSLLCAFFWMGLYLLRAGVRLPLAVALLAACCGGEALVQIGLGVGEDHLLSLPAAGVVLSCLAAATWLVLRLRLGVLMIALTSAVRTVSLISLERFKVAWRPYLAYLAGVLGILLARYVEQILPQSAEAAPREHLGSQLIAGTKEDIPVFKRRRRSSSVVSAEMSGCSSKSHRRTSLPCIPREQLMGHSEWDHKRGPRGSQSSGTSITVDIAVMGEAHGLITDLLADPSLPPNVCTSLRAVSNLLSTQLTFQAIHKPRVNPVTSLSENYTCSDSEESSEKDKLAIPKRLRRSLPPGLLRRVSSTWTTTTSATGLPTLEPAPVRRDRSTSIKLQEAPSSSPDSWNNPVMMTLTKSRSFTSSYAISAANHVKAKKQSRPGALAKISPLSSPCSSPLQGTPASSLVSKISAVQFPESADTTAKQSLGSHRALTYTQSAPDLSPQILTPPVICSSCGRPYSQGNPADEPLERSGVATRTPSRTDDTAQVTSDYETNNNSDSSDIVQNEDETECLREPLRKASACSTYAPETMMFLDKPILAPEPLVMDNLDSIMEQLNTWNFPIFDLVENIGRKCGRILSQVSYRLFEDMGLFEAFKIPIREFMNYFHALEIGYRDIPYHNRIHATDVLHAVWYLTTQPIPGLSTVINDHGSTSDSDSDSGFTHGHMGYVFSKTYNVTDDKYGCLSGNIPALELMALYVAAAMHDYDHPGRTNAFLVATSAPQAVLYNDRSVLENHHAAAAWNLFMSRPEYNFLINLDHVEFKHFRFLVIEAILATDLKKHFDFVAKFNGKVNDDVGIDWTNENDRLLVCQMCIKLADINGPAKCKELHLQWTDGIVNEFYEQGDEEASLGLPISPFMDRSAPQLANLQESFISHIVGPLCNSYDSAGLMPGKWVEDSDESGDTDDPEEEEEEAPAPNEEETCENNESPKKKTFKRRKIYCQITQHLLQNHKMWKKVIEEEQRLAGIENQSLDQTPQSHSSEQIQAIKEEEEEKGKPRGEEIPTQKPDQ

D(1A) dopamine receptor = D(1A) dopamine receptor (Homo sapiens, UniProt P21728); format: functional, cell-based
Sequence of D(1A) dopamine receptor (P21728 whole entry): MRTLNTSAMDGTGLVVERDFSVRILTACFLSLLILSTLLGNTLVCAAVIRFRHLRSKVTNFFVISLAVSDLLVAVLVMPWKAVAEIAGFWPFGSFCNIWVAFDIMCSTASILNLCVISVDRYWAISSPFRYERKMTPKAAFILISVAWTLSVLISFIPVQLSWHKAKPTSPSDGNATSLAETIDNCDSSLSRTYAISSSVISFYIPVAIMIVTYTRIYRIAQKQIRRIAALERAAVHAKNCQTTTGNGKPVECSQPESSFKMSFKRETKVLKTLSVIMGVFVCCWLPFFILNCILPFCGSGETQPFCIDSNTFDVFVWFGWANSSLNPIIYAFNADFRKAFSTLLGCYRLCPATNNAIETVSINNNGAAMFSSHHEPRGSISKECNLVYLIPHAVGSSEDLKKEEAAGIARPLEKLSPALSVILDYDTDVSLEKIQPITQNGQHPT

[4] = biological target: T3, Prostaglandin G/H synthase 1 (Rattus norvegicus, UniProt Q63921); format: functional
T3 sequence (Q63921 whole entry): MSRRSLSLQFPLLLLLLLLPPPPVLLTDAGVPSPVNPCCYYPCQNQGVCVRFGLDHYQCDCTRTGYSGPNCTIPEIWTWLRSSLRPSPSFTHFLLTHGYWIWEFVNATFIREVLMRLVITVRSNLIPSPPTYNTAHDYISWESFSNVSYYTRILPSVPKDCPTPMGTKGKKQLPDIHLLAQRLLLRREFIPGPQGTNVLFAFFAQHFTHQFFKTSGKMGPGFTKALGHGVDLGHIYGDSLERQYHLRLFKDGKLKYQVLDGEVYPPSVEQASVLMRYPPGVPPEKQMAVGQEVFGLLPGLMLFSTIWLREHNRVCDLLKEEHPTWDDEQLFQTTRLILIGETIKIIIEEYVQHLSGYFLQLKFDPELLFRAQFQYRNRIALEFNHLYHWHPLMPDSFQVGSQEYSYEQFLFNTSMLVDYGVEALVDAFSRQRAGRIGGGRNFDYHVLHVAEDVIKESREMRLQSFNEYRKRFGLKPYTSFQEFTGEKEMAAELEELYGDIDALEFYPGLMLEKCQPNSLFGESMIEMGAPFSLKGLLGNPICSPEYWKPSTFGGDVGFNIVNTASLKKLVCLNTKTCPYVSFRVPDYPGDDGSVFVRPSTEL

Mu-type opioid receptor = Mu-type opioid receptor (Homo sapiens, UniProt P35372); assay: biochemical; format: functional
Sequence of Mu-type opioid receptor (P35372 whole entry): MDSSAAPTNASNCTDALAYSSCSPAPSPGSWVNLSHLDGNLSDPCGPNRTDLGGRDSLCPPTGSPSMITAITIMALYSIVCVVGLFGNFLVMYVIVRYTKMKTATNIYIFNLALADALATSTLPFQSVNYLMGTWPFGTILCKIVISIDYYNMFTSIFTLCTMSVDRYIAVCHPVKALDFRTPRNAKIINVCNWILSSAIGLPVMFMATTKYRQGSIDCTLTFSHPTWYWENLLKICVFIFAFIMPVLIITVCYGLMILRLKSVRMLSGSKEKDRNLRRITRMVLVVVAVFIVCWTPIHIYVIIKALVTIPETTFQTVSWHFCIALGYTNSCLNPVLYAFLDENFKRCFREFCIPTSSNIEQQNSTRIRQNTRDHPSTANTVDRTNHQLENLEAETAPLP

[5] = biological target: Delta-type opioid receptor (Homo sapiens, UniProt P41143)
Sequence of Delta-type opioid receptor (P41143 whole entry): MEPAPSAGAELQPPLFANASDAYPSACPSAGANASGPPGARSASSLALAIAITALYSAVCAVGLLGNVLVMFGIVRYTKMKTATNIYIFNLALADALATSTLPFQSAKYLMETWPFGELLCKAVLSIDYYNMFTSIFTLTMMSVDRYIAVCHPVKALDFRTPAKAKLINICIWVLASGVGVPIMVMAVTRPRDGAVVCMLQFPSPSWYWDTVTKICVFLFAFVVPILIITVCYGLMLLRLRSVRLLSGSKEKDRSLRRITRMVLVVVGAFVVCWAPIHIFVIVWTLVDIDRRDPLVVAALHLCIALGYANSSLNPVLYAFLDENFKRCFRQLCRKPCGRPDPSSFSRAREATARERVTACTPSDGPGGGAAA

[6] = biological target: T4, Amine oxidase [flavin-containing] A (Homo sapiens, UniProt P21397); format: functional
T4 sequence (P21397 whole entry): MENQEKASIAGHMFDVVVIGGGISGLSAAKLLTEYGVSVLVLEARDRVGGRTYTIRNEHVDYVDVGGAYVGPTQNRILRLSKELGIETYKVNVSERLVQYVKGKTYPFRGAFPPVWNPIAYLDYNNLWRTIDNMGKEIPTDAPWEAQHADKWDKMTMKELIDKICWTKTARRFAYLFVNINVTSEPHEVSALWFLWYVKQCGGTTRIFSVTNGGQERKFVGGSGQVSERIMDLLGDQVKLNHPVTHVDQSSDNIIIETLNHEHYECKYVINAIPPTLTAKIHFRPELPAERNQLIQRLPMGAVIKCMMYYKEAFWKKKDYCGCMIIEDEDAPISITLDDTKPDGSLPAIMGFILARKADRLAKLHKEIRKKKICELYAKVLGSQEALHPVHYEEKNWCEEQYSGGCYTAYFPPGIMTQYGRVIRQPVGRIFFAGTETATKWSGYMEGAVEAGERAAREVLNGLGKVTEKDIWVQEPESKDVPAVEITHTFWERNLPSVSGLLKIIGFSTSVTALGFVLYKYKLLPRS

[7] = biological target: Voltage-gated inwardly rectifying potassium channel KCNH2 (Homo sapiens, UniProt Q12809); format: functional
Sequence of Voltage-gated inwardly rectifying potassium channel KCNH2 (Q12809 whole entry): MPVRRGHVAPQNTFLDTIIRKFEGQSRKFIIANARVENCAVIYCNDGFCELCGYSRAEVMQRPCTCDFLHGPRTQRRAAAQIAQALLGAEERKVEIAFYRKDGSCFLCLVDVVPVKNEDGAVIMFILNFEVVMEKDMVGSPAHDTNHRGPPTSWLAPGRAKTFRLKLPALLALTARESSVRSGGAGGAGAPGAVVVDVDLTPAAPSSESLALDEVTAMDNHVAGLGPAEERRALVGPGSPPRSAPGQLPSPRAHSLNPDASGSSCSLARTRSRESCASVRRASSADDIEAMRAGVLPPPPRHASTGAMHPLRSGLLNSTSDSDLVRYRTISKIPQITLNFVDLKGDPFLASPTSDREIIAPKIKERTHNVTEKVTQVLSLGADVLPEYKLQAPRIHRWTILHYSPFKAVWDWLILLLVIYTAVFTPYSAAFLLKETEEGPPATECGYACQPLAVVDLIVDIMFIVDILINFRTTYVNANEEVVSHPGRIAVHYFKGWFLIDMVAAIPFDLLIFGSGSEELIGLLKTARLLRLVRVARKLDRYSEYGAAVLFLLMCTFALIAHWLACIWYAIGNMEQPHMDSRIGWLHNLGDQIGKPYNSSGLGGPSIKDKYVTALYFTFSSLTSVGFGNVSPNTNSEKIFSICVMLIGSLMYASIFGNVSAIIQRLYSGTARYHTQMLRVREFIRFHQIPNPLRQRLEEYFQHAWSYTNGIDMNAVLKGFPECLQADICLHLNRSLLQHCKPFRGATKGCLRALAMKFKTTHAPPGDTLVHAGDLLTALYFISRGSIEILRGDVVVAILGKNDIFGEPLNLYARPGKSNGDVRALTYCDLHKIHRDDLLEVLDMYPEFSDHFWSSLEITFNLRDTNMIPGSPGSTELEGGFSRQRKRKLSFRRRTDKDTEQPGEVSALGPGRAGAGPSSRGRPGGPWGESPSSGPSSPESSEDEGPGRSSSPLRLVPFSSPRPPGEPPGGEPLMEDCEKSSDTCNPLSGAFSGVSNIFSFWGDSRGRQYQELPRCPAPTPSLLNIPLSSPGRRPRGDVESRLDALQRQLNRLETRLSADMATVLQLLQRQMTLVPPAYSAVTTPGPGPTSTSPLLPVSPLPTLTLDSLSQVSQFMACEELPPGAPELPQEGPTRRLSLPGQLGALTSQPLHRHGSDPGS

[8] = biological target: T5, Muscarinic acetylcholine receptor M1 (Homo sapiens, UniProt P11229); format: functional
T5 sequence (P11229 whole entry): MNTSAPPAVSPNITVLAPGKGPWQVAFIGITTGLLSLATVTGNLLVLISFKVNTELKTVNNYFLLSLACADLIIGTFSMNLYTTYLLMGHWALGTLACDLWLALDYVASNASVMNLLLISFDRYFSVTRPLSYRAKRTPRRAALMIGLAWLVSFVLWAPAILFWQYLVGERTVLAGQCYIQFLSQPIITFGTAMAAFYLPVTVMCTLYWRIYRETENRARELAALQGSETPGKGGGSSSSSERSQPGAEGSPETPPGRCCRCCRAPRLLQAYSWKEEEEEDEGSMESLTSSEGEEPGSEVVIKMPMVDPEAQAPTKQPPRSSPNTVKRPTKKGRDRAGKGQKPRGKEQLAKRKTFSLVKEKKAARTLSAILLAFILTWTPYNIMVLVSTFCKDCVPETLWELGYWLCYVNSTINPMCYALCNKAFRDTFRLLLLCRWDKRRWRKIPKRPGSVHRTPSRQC
Further: assay procedure not described here.

Row | Compound | AC50 [1] [µM] | AC50 [2] [µM] | AC50 [3] [µM] | AC50 (D(1A) dopamine receptor) [µM] | AC50 [4] [µM] | AC50 (Mu-type opioid receptor) [µM] | AC50 [5] [µM] | AC50 [6] [µM] | AC50 ([7]; read-out: AC50) [µM] | AC50 [8] [µM] | AC50 ([7]; human, cellular components) [µM]
1 | COc1ccc(/C=C/C(=O)Nc2ccccc2C(=O)O)cc1OC | > 30 | > 30 | 24 | > 30 | 7.4 | > 30 | > 30 | > 30 |  |  | 
2 | Nc1ccc(C(=O)O)c(O)c1 [AMINOSALICYLIC ACID] | > 30 | > 30 | > 30 | > 30 | > 30 | > 30 | > 30 | > 30 | > 30 |  | 
3 | COc1cc(OC)c(C(=O)CCCN2CCCC2)c(OC)c1 [BUFLOMEDIL] | > 30 | > 30 | > 30 | > 30 | > 30 | > 30 | > 30 | > 30 | 2.6 |  | 
4 | CS(=O)(=O)OCCCCOS(C)(=O)=O [BUSULFAN] | > 30 | > 30 | > 30 | > 30 | > 30 | > 30 | > 30 | > 30 | > 30 |  | 
5 | CCCCCCNC(=O)n1cc(F)c(=O)[nH]c1=O [CARMOFUR] | > 30 | > 30 | > 30 | > 30 | > 30 | > 30 | > 30 | > 30 | > 30 |  | 
6 | CC(C)(C)NCC(O)c1cc(Cl)c(N)c(Cl)c1 (centres undefined) [CLENBUTEROL] | > 30 | > 30 | > 30 | > 30 | > 30 | > 30 | > 30 | > 30 | > 30 |  | 
7 | COc1cccc2c1C(=O)c1c(O)c3c(c(O)c1C2=O)C[C@@](O)(C(C)=O)C[C@@H]3O[C@H]1C[C@H](N)[C@H](O)[C@H](C)O1 [DAUNORUBICIN] |  | 14.1 | > 30 | > 30 | > 30 | > 30 | 16.2 | > 30 | > 30 |  | 
8 | Nc1nc2c(c(=O)[nH]1)N(C=O)C(CNc1ccc(C(=O)N[C@@H](CCC(=O)O)C(=O)O)cc1)CN2 (some centres undefined) [LEUCOVORIN] | > 30 | > 30 | > 30 | > 30 | > 30 | > 30 | > 30 | > 30 | > 30 |  | 
9 | CCn1cc(C(=O)O)c(=O)c2cc(F)c(N3CCN(C)CC3)cc21 [PEFLOXACIN] | > 30 | > 30 | > 30 | > 30 | > 30 | > 30 | > 30 | > 30 |  |  | 
10 | C[n+]1ccccc1/C=N/O [PRALIDOXIME] |  | > 30 | > 30 | > 30 |  | > 30 | > 30 | > 30 | > 30 |  | 
11 | CCCNC(C)C(=O)Nc1ccccc1C (centres undefined) [PRILOCAINE] | > 10 | > 30 | > 30 | > 30 | > 30 | > 30 | > 30 | > 30 | > 30 |  | 
12 | NC(=O)CCC/N=C(\c1ccc(Cl)cc1)c1cc(F)ccc1O [PROGABIDE] | > 10 | > 30 | > 30 | > 10 | > 10 |  | > 30 | > 10 | > 30 | > 10 | 
13 | CC(C)CC(N(C)C)C1(c2ccc(Cl)cc2)CCC1 (centres undefined) [SIBUTRAMINE] | > 30 | > 30 | > 30 | > 10 | > 30 | > 30 | > 30 | > 10 | 8.34 |  | 
14 | [H]/N=C(/N)N[C@H]1[C@H](O)[C@@H](O)[C@H](O[C@@H]2O[C@@H](C)[C@](O)(C=O)[C@H]2O[C@@H]2O[C@@H](CO)[C@H](O)[C@@H](O)[C@@H]2NC)[C@@H](N/C(N)=N\[H])[C@@H]1O [STREPTOMYCIN] | > 30 | > 30 | > 30 | > 30 | > 30 | > 30 | > 30 | > 30 | > 30 |  | 
15 | CC(C)(C)NC[C@H](O)COc1nsnc1N1CCOCC1 [TIMOLOL] | > 30 | > 30 | > 30 | > 30 | > 30 | > 30 | > 30 | > 30 | > 30 |  | 
16 | Cc1cccc(N(C)C(=S)Oc2ccc3ccccc3c2)c1 [TOLNAFTATE] | > 10 | > 30 | > 30 | > 30 | > 10 | > 30 | > 30 | > 30 | > 30 |  | 
17 | CN1[C@@H]2CC[C@H]1C[C@@H](OC(=O)c1c[nH]c3ccccc13)C2 [TROPISETRON] | > 30 | > 30 | > 30 | > 30 | > 30 | > 30 |  | > 30 | 0.95 |  | 
18 | C=CC(N)CCC(=O)O (centres undefined) [VIGABATRIN] | > 10 | > 30 | > 30 | > 10 | > 10 |  | > 30 | > 10 | > 30 | > 10 | 
19 | COLISTIN |  | > 30 | > 30 | > 30 |  | > 30 | > 30 | > 30 |  | > 30 | > 30
